The values that follow come from PubChem BioAssay (NCI).

Broadly, the TGI is the concentration giving total growth inhibition. Broadly, the GI50 is the concentration giving 50% growth inhibition.

Values joined by “and” are separate entries in the source; they are usually repeats but may differ in a detail not shown here. Identical values can stand only once.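 Five concentrations, 48 hours, 96-well plates. The concentration for 50% growth inhibition is given as GI50. TGI is the concentration that stops growth completely.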

Holding throughout (test): DTP human tumour cell line panel, 48 h
In assay [1] the test system is NCI-H23 lung.
In assay [2] the test system is SNB-19 CNS.
In assay [3] the test system is MCF7 breast.
The test system of assay [4] is OVCAR-8 ovarian.
The test system of assay [5] is UACC-257 melanoma.
The subject of assay [6] is HT29 colon.
The test system of assay [7] is OVCAR-4 ovarian.
The subject of assay [8] is NCI-H460 lung.
The subject of assay [9] is SR leukemia.
Assay [10] concerns HS 578T breast.
Assay [11] relates to DU-145 prostate.

For `Cc1c2c(cc3c1[nH]c1ccccc13)C=NCC2`, the TGI in assay [1] was 82.4 µM; in assay [2], 45.8 µM; in [3] it was 8.7 µM; in [4] it was 36.4 µM; in [5] it was 19.6 µM; in assay [6], 31.7 µM. For the same compound, the TGI was determined as 53 µM in [7] and 27.7 µM in assay [8].

On to `C=C1C(=O)OC2(C)C3CCC(C3)C12` (centres undefined), for which the TGI in assay [1], in [2], in [4], in assay [6], in [7] and in [9] was more than 100 µM throughout. In [8], the TGI is more than 100 µM.

For the compound `CCCCCCCCCCCCCCCCSCC(COC)COP(=O)([O-])OCC[N+](C)(C)C` (centres undefined), the TGI in [1] worked out at 28.2 µM; in assay [2], 9.6 µM; in [3], 26.7 µM; in assay [4] it was 22.3 µM; in assay [5], 28.8 µM; in [6], 12.8 µM. Moreover, the TGI in [7] is 15.3 µM; in [8], 6.2 µM.

In the case of `CC(C)CCC[C@@H](C)[C@H]1CCC2C3CC=C4C[C@@H](Oc5c6ccccc6nc6ccccc56)CCC4C3CCC21` (some centres undefined), the TGI in assay [1], in assay [2], in [10], in assay [4], in [5] and in assay [6] was more than 50 µM each time. Besides, the TGI in [11], in [7] and in [8] was more than 50 µM in each case.

As to `CCN(CC)CCCOC(=O)/C=C/c1c(C)[nH]c(=O)[nH]c1=O`, the TGI in [1] was more than 625 µM; in assay [2], more than 625 µM; in assay [3], more than 625 µM; in assay [4], more than 625 µM; in assay [5] it was more than 625 µM; in [6] it was more than 394 µM. Besides, the TGI in [7] is more than 394 µM; in assay [8] it was more than 625 µM.

For `COC(=O)c1cc(NC(=O)c2cc(NC(=O)c3cc([N+](=O)[O-])cn3C)cn2C)cn1C`, the TGI in assay [1], in assay [2], in assay [3], in [4], in [6] and in [11] was more than 100 µM throughout. Moreover, the TGI in assay [7] and in assay [8] was more than 100 µM in each case.

For `O=c1/c(=C\c2ccccc2)sc2n1C(c1ccccc1)C1(O)CCCCC1N=2` (centres undefined), the TGI in [1], in assay [2], in assay [3], in assay [4], in assay [5] and in assay [6] was more than 100 µM in each case. Further, the TGI in assay [7], in [9] and in assay [8] was more than 100 µM in each case.

Regarding `CCOC(=O)Oc1cc2c(c(OC)c1OC)-c1ccc(SC)c(=O)cc1C(NC(=O)C(F)(F)F)CC2` (centres undefined), in assay [1], the GI50 is less than 0.001 µM. Besides, the TGI is more than 100 µM in assay [2]; less than 0.001 µM in assay [10]; 19.5 µM in assay [3]; 37.9 µM in assay [5]; 5.4 µM and 15.6 µM in assay [9]; 0.753 µM and 2.47 µM in assay [8].

With `COc1ccc(N2C(=Nc3ccccc3)SC(=N/S(=O)(=O)c3ccccc3)/C2=N\S(=O)(=O)c2ccccc2)cc1`, the TGI in [1] is 27.4 µM; in assay [2] it was 57.5 µM; in assay [10] it was 55.7 µM; in assay [3], 40.8 µM; in assay [4], 39.6 µM; in assay [5], 73.1 µM. In addition, the TGI in [6] came to 48 µM; in assay [9], 40.4 µM; in [8], 26.2 µM.

As to `Cc1cc(O)c2c(c1O)C(=O)C13C(=C2O)C(=O)C2C(O)C1C1C(O)C3C(=O)C3=C(O)c4c(O)cc(C)c(O)c4C(=O)C321` (centres undefined), the TGI in assay [4] worked out at 1.59 µM; in assay [5], 3.46 µM; in assay [6] it was 0.406 µM; in [7] it was 7.24 µM.

On to `O=C1/C(=C\c2cccc(Oc3ccccc3)c2)S(=O)(=O)C(c2ccccc2)N1c1ccccc1Cl` (centres undefined), for which the TGI in assay [1] is more than 100 µM; in assay [2] it was 64 µM; in assay [3], more than 100 µM; in [4], more than 100 µM; in assay [5] it was more than 100 µM; in [6], 70.3 µM. Further, the concentration for total growth inhibition (TGI) in assay [11] is more than 100 µM; in [7] it was 98.1 µM; in assay [9], 62.4 µM; in assay [8], more than 100 µM.

In the case of `Cc1sc2nc(-c3cc([N+](=O)[O-])c(Cl)cc3Cl)c(/C=N/N=C(N)N)n2c1C`, the TGI in assay [1] stood at 18.7 µM; in assay [10], 82.7 µM; in assay [4] it was 31.6 µM; in assay [5], 26 µM; in assay [6], 9 µM; in assay [11] it was 39.1 µM. The values for the TGI in [7] and in [8] were 9 µM and 54.7 µM, respectively.

For the compound `C=C1C[C@@H](O)C[C@@]2(C)C[C@@H]3OC(=O)C(=C)[C@@H]3C[C@H]12`, the TGI came to 35.4 µM in assay [1]; 26.4 µM in assay [2]; 24.8 µM in [3]; 46.6 µM in [4]; 15.9 µM in assay [5]; 10.8 µM in assay [6]. The TGI is 31.4 µM in assay [7] and more than 58.6 µM in assay [8].

For `Cn1c(C(C#N)c2nc(Cl)ncc2Br)nc2ccccc21` (centres undefined), the TGI in assay [1], in assay [2], in assay [4], in assay [5], in [6] and in assay [11] was more than 100 µM throughout. The TGI in [7] and in [8] was more than 100 µM in each case.

With `c1ccc(C2=Nc3nc4ccccc4n3C(c3ccccc3)C2)cc1` (centres undefined), the TGI in [1], in assay [2], in [10], in assay [3], in [4] and in assay [5] was more than 100 µM throughout. In addition, the TGI in [6], in assay [7], in assay [9] and in assay [8] was more than 100 µM each time.

Regarding `CC(=O)OCC1OC(n2cc(F)c(=O)[nH]c2=O)C(N)C(OC(C)=O)C1OC(C)=O` (centres undefined), the TGI in assay [1], in assay [2], in assay [3], in [4], in [5] and in assay [6] was more than 100 µM in each case. In addition, the TGI in assay [7] and in [8] was more than 100 µM each time.
